Read-outs that look alike come from different tables or passages of the source.

Regarding iso-alpha acids, the “Solubility (aqueous solution that can be made)” value by setting is: (pH 7.5) 20 % aqueous solution; (pH 9) 30 % aqueous solution.

The values above are taken from patent US8846115B2, “Anti-inflammatory cyclooxygenase inhibitors” (Metaproteomics, LLC, priority 2001, dated 2014).
